Data from ChEMBL document CHEMBL1201862, “PubChem BioAssay data set” (2004).
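All cell lines were grown in 96-well plates and treated with compound for 48 hours. GI50 marks 50% less growth.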 Calls of active or inactive are those of the source. Rule as the data show it: active = GI50 up to about 1.1 µM and inactive = higher.

Tests used:
Assay in all cases: NCI anticancer screen, dose series, 48 h
PC-3 = test system: PC-3
HOP-92 = test system: HOP-92
OVCAR-8 = test system: OVCAR-8
Malme-3M = test system: Malme-3M
HL-60 = test system: HL-60
MDA-N = test system: MDA-N
SK-MEL-28 = test system: SK-MEL-28
Hs-578T = test system: Hs-578T
SK-OV-3 = test system: SK-OV-3
BT-549 = test system: BT-549
OVCAR-5 = test system: OVCAR-5
NCI-H23 = test system: NCI-H23
SNB-75 = test system: SNB-75
RPMI-8226 = test system: RPMI-8226
UACC-257 = test system: UACC-257
SF-295 = test system: SF-295
EKVX = test system: EKVX
NCI-H460 = test system: NCI-H460
MOLT-4 = test system: MOLT-4
HCC 2998 = test system: HCC 2998

Nc1nc(N)nc(CCCc2nc(N)nc(N)n2)n1
GI50 (PC-3): > 100 µM (inactive) | GI50 (HOP-92): > 100 µM (inactive) | GI50 (OVCAR-8): > 100 µM (inactive) | GI50 (Malme-3M): > 100 µM (inactive) | GI50 (HL-60): > 100 µM (inactive) | GI50 (MDA-N): > 100 µM (inactive) | GI50 (SK-MEL-28): > 100 µM (inactive) | GI50 (Hs-578T): > 100 µM (inactive) | GI50 (SK-OV-3): > 100 µM (inactive) | GI50 (BT-549): > 100 µM (inactive) | GI50 (OVCAR-5): > 100 µM (inactive) | GI50 (NCI-H23): > 100 µM (inactive) | GI50 (SNB-75): > 100 µM (inactive) | GI50 (RPMI-8226): > 100 µM (inactive) | GI50 (UACC-257): > 100 µM (inactive) | GI50 (SF-295): > 100 µM (inactive) | GI50 (EKVX): > 100 µM (inactive) | GI50 (NCI-H460): > 100 µM (inactive) | GI50 (MOLT-4): > 100 µM (inactive)

CCOc1ccc(NC(=O)C(=O)C2C(=O)Nc3ccccc3[S+]2[O-])cc1 (stereo not drawn)
GI50 (PC-3): > 100 µM (inactive) | GI50 (HOP-92): > 100 µM (inactive) | GI50 (OVCAR-8): > 100 µM (inactive) | GI50 (Malme-3M): > 100 µM (inactive) | GI50 (HL-60): > 100 µM (inactive) | GI50 (MDA-N): > 100 µM (inactive) | GI50 (SK-MEL-28): > 100 µM (inactive) | GI50 (Hs-578T): > 100 µM (inactive) | GI50 (SK-OV-3): > 100 µM (inactive) | GI50 (BT-549): > 100 µM (inactive) | GI50 (OVCAR-5): > 100 µM (inactive) | GI50 (NCI-H23): > 100 µM (inactive) | GI50 (SNB-75): 95.1 µM (inactive) | GI50 (RPMI-8226): > 100 µM (inactive) | GI50 (UACC-257): > 100 µM (inactive) | GI50 (SF-295): > 100 µM (inactive) | GI50 (EKVX): 85.9 µM (inactive) | GI50 (NCI-H460): > 100 µM (inactive)

CN(C)c1ccc2c3c(c(=O)oc2c1)CCC3
GI50 (PC-3): 90.4 µM (inactive) | GI50 (HOP-92): 38.7 µM (inactive) | GI50 (OVCAR-8): 64.4 µM (inactive) | GI50 (HL-60): 26.9 µM (inactive) | GI50 (MDA-N): 97.9 µM (inactive) | GI50 (SK-MEL-28): > 100 µM (inactive) | GI50 (Hs-578T): 36.8 µM (inactive) | GI50 (HCC 2998): 54.7 µM (inactive) | GI50 (BT-549): > 100 µM (inactive) | GI50 (OVCAR-5): > 100 µM (inactive) | GI50 (NCI-H23): 74 µM (inactive) | GI50 (RPMI-8226): 37.6 µM (inactive) | GI50 (UACC-257): 82.8 µM (inactive) | GI50 (SF-295): 92.7 µM (inactive) | GI50 (EKVX): 9.14 µM (inactive) | GI50 (NCI-H460): 83.9 µM (inactive) | GI50 (MOLT-4): 27.2 µM (inactive)

Nc1ccc(S(=O)(=O)Nc2nc3ccccc3nc2Nc2ccc(S(N)(=O)=O)cc2)cc1
GI50 (PC-3): 34.9 µM (inactive) | GI50 (HOP-92): 17.6 µM (inactive) | GI50 (OVCAR-8): 45.4 µM (inactive) | GI50 (Malme-3M): 22.8 µM (inactive) | GI50 (HL-60): 25.1 µM (inactive) | GI50 (MDA-N): 56.6 µM (inactive) | GI50 (SK-MEL-28): 30.2 µM (inactive) | GI50 (Hs-578T): 23 µM (inactive) | GI50 (SK-OV-3): 29.8 µM (inactive) | GI50 (BT-549): 20.2 µM (inactive) | GI50 (OVCAR-5): > 100 µM (inactive) | GI50 (NCI-H23): 20.5 µM (inactive) | GI50 (SNB-75): 13.6 µM (inactive) | GI50 (RPMI-8226): 33.7 µM (inactive) | GI50 (UACC-257): 46 µM (inactive) | GI50 (SF-295): 26.9 µM (inactive) | GI50 (EKVX): 75.7 µM (inactive) | GI50 (NCI-H460): > 100 µM (inactive) | GI50 (MOLT-4): 15.4 µM (inactive)

COC(=O)[C@@]1(Cc2ccc(OC(C)=O)cc2)Cc2cc3ccccc3n2N1
GI50 (PC-3): 30 µM (inactive) | GI50 (HOP-92): 75 µM (inactive) | GI50 (OVCAR-8): 50.8 µM (inactive) | GI50 (Malme-3M): 47.5 µM (inactive) | GI50 (HL-60): 20.3 µM (inactive) | GI50 (MDA-N): 26.5 µM (inactive) | GI50 (SK-MEL-28): 54.6 µM (inactive) | GI50 (Hs-578T): 82.8 µM (inactive) | GI50 (SK-OV-3): > 100 µM (inactive) | GI50 (BT-549): 28.2 µM (inactive) | GI50 (OVCAR-5): 94.4 µM (inactive) | GI50 (NCI-H23): 25.3 µM (inactive) | GI50 (RPMI-8226): 26.6 µM (inactive) | GI50 (UACC-257): 17.3 µM (inactive) | GI50 (SF-295): 46.8 µM (inactive) | GI50 (EKVX): 23.8 µM (inactive) | GI50 (MOLT-4): 26.8 µM (inactive)

C[C@@H](CO)C1=C(O)C(=O)c2c(ccc3c2CCCC3(C)C)C1=O
GI50 (PC-3): 31.8 µM (inactive) | GI50 (HOP-92): 21.2 µM (inactive) | GI50 (OVCAR-8): 35.2 µM (inactive) | GI50 (Malme-3M): 15.9 µM (inactive) | GI50 (HL-60): < 0.01 µM (active) | GI50 (MDA-N): 45.1 µM (inactive) | GI50 (SK-MEL-28): 30.8 µM (inactive) | GI50 (Hs-578T): 51.2 µM (inactive) | GI50 (SK-OV-3): 61.9 µM (inactive) | GI50 (BT-549): 37.1 µM (inactive) | GI50 (OVCAR-5): 36.6 µM (inactive) | GI50 (NCI-H23): 22.1 µM (inactive) | GI50 (SNB-75): 40 µM (inactive) | GI50 (RPMI-8226): 23 µM (inactive) | GI50 (UACC-257): 32.1 µM (inactive) | GI50 (SF-295): 30.4 µM (inactive) | GI50 (EKVX): 33.5 µM (inactive) | GI50 (MOLT-4): 42.1 µM (inactive)
